US20090318342A1, “Compounds” (IMPERIAL INNOVATIONS LIMITED, priority 2005, published 2009)

Columns and labels:
[1] = biological target: soluble form of TACE (TACE R651) (Homo sapiens, UniProt P78536); test: Enzyme inhibition kinetic study, TACE; type: biochemical; conditions: 0.5 nM TACE, pH 9.0, 1 mM NaCl; for Inhibition of TACE activity (in words): FIG. 2B
Protocol: FIG. 2. Inhibition of MMP and TACE by N-TIMP-3 and its mutants. A. Inhibition of MMP-14(CD) by wild-type and mutated N-TIMP-3. Open circles, wild-type N-TIMP-3; closed circles, T2G; and open squares, -1A. B. Comparison of the inhibition of TACE by wild-type N-TIMP-3, N-TIMP-1 and TAPI-2. The inhibitors were incubated with 0.5 nM TACE for 3 hr at room temperature, and the residual enzyme activity was measured with 10 μM Substrate III (R&D Systems). […] Open circles, N-TIMP-3; closed circles, TAPI-2; and open squares, N-TIMP-1. C. Inhibition of TACE (0.5 nM) by wild-type and mutated N-TIMP-3. Open circles, wild-type inhibitor; closed circles, T2G; and open squares, -1A.
Enzyme inhibition kinetic studies—Inhibition kinetic studies for MMPs and TACE were carried out as described previously (19, 27) with modifications. Purified N-TIMP-3 and mutants were dialyzed against 20 mM Tris-HCl (pH 7.0), 50 mM NaCl containing 20% glycerol, centrifuged at 14,000 rpm for 10 min to remove any precipitate, and protein concentration was re-measured before conducting inhibition assays. Since NaCl inhibits the activity of the TACE ectodomain in vitro (28), we adjusted the final concentration of NaCl to 1 mM in all assays with TACE. Equal volumes (10% of total assay volume) of diluted solutions of N-TIMP-3 and mutants were added to TACE assays, resulting in a final pH of 8.8.
where v is the experimentally determined reaction velocity, v0 is the uninhibited activity, E is enzyme concentration, I is inhibitor concentration, K is the apparent inhibition constant (Ki^(app)) and h is the Hill coefficient.
The inhibitory activities of the mutants were also compared with that of wild-type N-TIMP-3 against a soluble form of TACE in which the transmembrane and C-terminal cytoplasmic domains are deleted (TACE R651; (28)). […] The inhibition curve of TACE by wild-type N-TIMP-3 is sigmoid, in striking contrast with the inhibition by TAPI-2 and with the inhibition of MMPs by N-TIMP-3 and N-TIMP-1 (FIGS. 2A, 2B; (31)). Sigmoid inhibition curves were also obtained for TACE with the T2G and -1A mutants of N-TIMP-3 (FIG. 2C).

THP-1 cells = test: Inhibition of TNF-α shedding from THP-1 cells (ELISA); type: cell-based, human; conditions: 100 ng/ml PMA, 6 h, 50 to 500 nM
Protocol: FIG. 3. Effects of mutations in N-TIMP-3 on inhibition of cellular shedding of TNF-α. THP-1 cells (2.5×10^6/ml) growing in serum-free RPMI-1640 medium were stimulated with 100 ng/ml PMA for 20 min before adding various concentrations of N-TIMP-3 (wild-type and mutants). Cells were allowed to grow for another 6 hr and conditioned media were collected for the ELISA assays.
Inhibition of TNF-α shedding from THP-1 cells—All TIMP solutions were dialyzed against 20 mM Tris-HCl (pH 7.0), 150 mM NaCl and 20% glycerol before use. Human monocyte THP-1 cells cultured in RPMI-1640 medium supplemented with 5% fetal calf serum were harvested, extensively washed and reseeded into serum-free medium at 2.5×10^6 cells/ml. […] The amount of soluble TNF-α released into the medium was measured using sandwich enzyme-linked immunosorbent assay, as described by Engelberts et al. (30) with modifications. The released TNF-α was absorbed to microtiter plates coated with mouse monoclonal anti-human TNF-α antibody BD551220 (1:200 dilution), and the bound TNF-α was detected using biotinylated mouse monoclonal anti-human TNF-α: antibody BD554511 (1:500 dilution) and streptavidin conjugated with horse radish peroxidase, and 3,3′,5,5′-tetramethylbenzidine as peroxidase substrate (KPL, Guildford, UK). The plates were read at 450 nm with an ELX808 plate reader (BIO-TEK Instruments Inc). […]

[2] = system: bovine nasal cartilage explants; test: IL-1α-stimulated bovine nasal cartilage explants, GAG release; type: cell-based; conditions: 3 days
Protocol: (§1) GAG released into the conditioned media is measured in duplicate using a modification of the dimethylmethylene blue (DMMB) assay as described in Farndale et al.. Shark chondroitin sulfate (0-2.62 μg) is used as standard. The % of total GAG released into the medium is calculated as follows: % of total GAG released=(total GAG in the medium)/(total GAG in the medium+total GAG remaining in the cartilage).
Bovine nasal cartilage explants were stimulated with IL-1α in the presence or absence of N-TIMP-1, TIMP-2, or N-TIMP-3 for 3 days.

[3] = system: porcine articular cartilage; test: Retinoic acid-stimulated porcine articular cartilage, GAG release; type: cell-based
Protocol: Porcine articular cartilage from the metacarpophalangeal joints of 3-9 month old pigs is dissected into small shavings approximately 3 mm long and 2-3 mm wide. After dissection, the cartilage is allowed to rest for 24 h at 37° C. under 5% CO2 in DMEM containing penicillin-streptomycin, amphotericin B, and 5% fetal calf serum. The medium is then replaced with fresh media and the cartilage is rested for a further 24-48 h. Each cartilage piece is then placed in one well of a round bottom 96-well plate with 200 μl of serum-free DMEM with or without 10-100 ng/ml IL-1α or 1 μM retinoic acid and various concentrations of each TIMP-3 mutant. After 3 days, all of the conditioned media are harvested and stored at −20° C. until use.
as §1

[4] = system: aggrecanase activity in IL-1α- and retinoic acid-stimulated cartilage; test: Aggrecanase-generated aggrecan fragments in cartilage conditioned media, Western analysis; type: cell-based; conditions: 1 μM
Text: Aggrecan fragments released into the conditioned medium are deglycosylated by digestion with chondroitinase ABC and keratanase and the samples are subjected to SDS/PAGE and Western blotting analysis as described by Little et al.. The primary antibodies used to detect aggrecanase-generated and MMP-generated aggrecan fragments are BC-3 and BC-14, respectively. Antigen-antibody complexes are detected by anti-mouse AP-linked donkey antibody and the AP substrate.
Conditioned media from the above experiments were analyzed by monoclonal antibodies that recognize either the aggrecanase-generated aggrecan neoepitope ARGSV or the MMP-generated aggrecan neoepitope FFGVG. In concordance with GAG release, there was an increase in the amount of aggrecanase-generated aggrecan fragments released upon treatment with either stimulus, but no MMP-generated fragments were detected.

[5] = system: porcine articular cartilage; test: IL-1α-stimulated porcine articular cartilage degradation, GAG release (DMMB); type: cell-based; conditions: IL-1α 10 ng/ml, 3 days
Protocol: FIG. 7. Inhibition of IL-1a stimulated porcine articular cartilage degradation by N-terminal mutants of N-TIMP-3. Porcine articular cartilage pieces were cultured for three days. Cartilage was stimulated with IL-1α (10 ng/ml) with TIMPs at the concentrations indicated. Glycosaminoglycan (GAG) release in the media was measured by dimethyl methylene blue (DMMB).
Porcine articular cartilage from the metacarpophalangeal joints of 3-9 month old pigs is dissected into small shavings approximately 3 mm long and 2-3 mm wide. After dissection, the cartilage is allowed to rest for 24 h at 37° C. under 5% CO2 in DMEM containing penicillin-streptomycin, amphotericin B, and 5% fetal calf serum. The medium is then replaced with fresh media and the cartilage is rested for a further 24-48 h. […]
as §1, with “Shark chondroitin sulfate (0-2.62 μg) is used as standard.” left out
Porcine articular cartilage pieces were cultured for 3 days. […] Glycosaminoglycan (GAG) release in the media was measured by dimethyl methylene blue (DMMB).

Chain of soluble form of TACE (TACE R651) (P78536 215-651): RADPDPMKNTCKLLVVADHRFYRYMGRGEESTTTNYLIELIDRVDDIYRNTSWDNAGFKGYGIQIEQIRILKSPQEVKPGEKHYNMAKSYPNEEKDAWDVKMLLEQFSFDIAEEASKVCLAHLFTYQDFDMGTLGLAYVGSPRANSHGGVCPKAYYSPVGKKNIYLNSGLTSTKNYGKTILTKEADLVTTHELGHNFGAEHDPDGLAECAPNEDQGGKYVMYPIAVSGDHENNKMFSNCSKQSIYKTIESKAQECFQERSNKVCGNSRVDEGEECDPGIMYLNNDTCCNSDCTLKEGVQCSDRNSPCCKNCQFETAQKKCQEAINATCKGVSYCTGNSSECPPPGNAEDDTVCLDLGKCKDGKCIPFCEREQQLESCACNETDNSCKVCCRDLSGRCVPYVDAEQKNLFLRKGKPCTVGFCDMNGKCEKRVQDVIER

Compound	Inhibition of TACE activity (in words) [1]	Inhibition of PMA-stimulated release of TNF-α (THP-1 cells)	Inhibition of IL-1α-stimulated GAG release [2]	Inhibition of retinoic acid-stimulated GAG release [3]	Release of aggrecanase-generated aggrecan fragments [4]	h (Hill coefficient) for TACE inhibition ([1]; Table II, fit with equation 3)	Ki ([1]; Table II, fit with equation 3, read-out: Ki(app) TACE)	Inhibition of IL-1α stimulated cartilage degradation (GAG release) [5]
N-TIMP-1: N-terminal inhibitory domain of TIMP-1, expressed in E. coli and folded in vitro [reference compound]	minimal inhibitory activity	no effect	not effective even at the concentration of 1 μM	did not inhibit	not effective	–	–	–
CC(C)CC(CC(=O)NO)C(=O)NC(C(=O)NC(C)C(=O)NCCN)C(C)(C)C (stereo not drawn) [TAPI-2, HONHCOCH2CH(CH2CH(CH3)2)—CO-t-Butyl-Gly-Ala-NHCH2CH2NH2, reference compound]	effectively inhibited	–	–	–	–	1	4.28 ± 0.001 nM	–
TIMP-1: tissue inhibitor of metalloproteinases-1 [reference compound]	–	–	–	–	–	–	–	did not
